How the values were obtained:
[1] = Stability study of I3A in solvents/excipients at room temperature (HPLC ratio of isoform 'b' to 'a' and 'c'); assay type: physicochemical
Protocol: A stability study of I3A in the following solvent/excipients/excipient combinations was performed over 14 days (except where otherwise stated) at room temperature:
A 0.5 mg/ml stock solution of I3A in acetonitrile was prepared. Aliquots of 1.0 ml were transferred to individual glass sample vials by a burette; the solutions were dried by air jet and then 1.0 g of the respective solvent/excipient/excipient combination was added to the vials. On Day 0, Day 5 and Day 14, aliquots of the stability samples were removed for HPLC analysis using the chromatographic conditions described under “Stability in DMSO”, below. Stability was expressed as the ratio of peak ‘b’ to peak ‘a’ (and peak ‘c’ if present), with a high ratio indicating stability in a particular excipient.
The chromatographic conditions employed for the excipients stability study were as follows:
It is assumed that for an excipient in which I3A is not stable, other like excipients will not be suitable.

[2] = Preliminary in vitro diffusion study (Franz cell); assay type: in vitro ADME; conditions: human stratum corneum, at detectable levels
Text: Once the stability of I3A in the excipients and penetration enhancers had been established, a preliminary in vitro diffusion experiment could be conducted to determine the permeation of stratum corneum by I3A from some simple formulations. The Franz diffusion cell is designed to mimic the physiological and anatomical conditions of skin in situ. It is an air/fluid phase static cell, which comprises a donor compartment, receptor compartment and a side arm sampling port (see FIG. 1). Surgically excised skin is positioned between the two halves with the stratum corneum facing the donor compartment to allow for drug application.
An initial in vitro diffusion experiment using a simple formulation of I3A in miglyol was performed. […] This formulation was used in later diffusion cell experiments as a negative control and also served to confirm the integrity of the stratum corneum, as if there is no diffusion of drug from this formulation, it can be assumed that the stratum corneum remains intact.
A formulation of I3A was prepared in phosphate buffer (pH 4.5) with β-cyclodextrins (Captisol®) added with a view to increasing the solubility and stability of I3A, and the flux of the drug. A second formulation in DMSO, a known penetration enhancer, was also prepared for comparative purposes, as well as a formulation in miglyol, which served as a negative control. […]

[3] = Stability study of I3A in solvents at 4-8° C.; assay type: physicochemical; conditions: 14 days
Protocol: The stability of I3A in various solvents at 4-8° C. was investigated. A stock solution of 1.26 mg of I3A was weighed out and dissolved in 2 ml acetone. This stock solution was used to prepare the stability samples as follows:
Aliquots of 100 μl of stock solution were transferred to individual glass HPLC vials via a Hamilton syringe, with careful rinsing and drying of the syringe between each sample. The samples were dried down by air jet and then 0.5 ml of the appropriate test solvent system added. The solvent systems were tested in triplicate and are listed below:
Blank samples were also prepared in triplicate using 100 μl of acetone in place of the stock solution. The blank samples were then dried down and 0.5 ml acetone added to each vial. The vials were all crimped, sealed with Parafilm® and placed at 4-8° C. for the duration of the stability study. HPLC analysis was performed on the samples on Day 0, Day 1, Day 5 and Day 14 of the stability study. The samples were prepared for the HPLC assay as described below:
The stability samples were removed from 4-8° C. and left at ambient temperature for 30 mins. Aliquots of 100 μl were transferred to fresh glass HPLC vials using a Hamilton syringe, with careful, rinsing and drying of the syringe between each sample. To facilitate drying of the samples, 0.5 ml of acetone was added to each vial and then the samples were dried down by air jet. The samples were reconstituted with 1 ml of acetonitrile and analysed by HPLC using the chromatographic conditions specified above.

[4] = I3A in Mineral oil, room temperature, 14 days

In the case of `C/C=C(/C)C(=O)O[C@H]1C(C)=C[C@]23C(=O)[C@H](C=C(CO)[C@@H](O)[C@]12O)[C@H]1[C@@H](C[C@H]3C)C1(C)C` [Formulation I3A, ingenol-3-angelate], the “Stable?” value ([1]; I3A in 2-Hydroxypropyl-β-cyclodextrin (Cavasol)/PO4 pH 4.5, room temperature, 14 days) is reported as “√”, the “Stable?” value ([1]; I3A in Acetone, room temperature, 14 days) is reported as “stable and √” and the “Stable?” value ([1]; I3A in Acetonitrile, room temperature, 14 days) is reported as “stable and √”. The “Stable?” value ([1]; I3A in Ammonium buffer pH 4.5, room temperature) was “stable and √”, the Comments ([1]; I3A in Captisol/H2O, room temperature, 7 days study (comment continues: present)) was “Isoforms ‘a’ and ‘c’” and the Comments ([1]; I3A in Cavasol/H2O, room temperature, 14 days) was “Large peak for isoform ‘c’”. The Comments ([1]; I3A in Cavasol/PO4 pH 4.5, room temperature, 14 days) was “Some precipitation of I3A”, the “Stable?” value ([1]; I3A in DMSO, room temperature, 10 days study) was “stable and √” and the Comments ([1]; I3A in Methanol, room temperature, 14 days) was “Isoform ‘a’ forms”. For the same compound, the Comments ([1]; I3A in Methanol/water (70/30), room temperature, 14 days) was “Isoform ‘a’ then ‘c’ form”, the “Stable?” value ([1]; I3A in Miglyol 810, room temperature, 14 days) was “√” and the Comments [1, 4] was “Precipitation of I3A”. For the same compound, the “Stable?” value [1, 4] was “√”, the Comments ([1]; I3A in Oleic acid, room temperature, 14 days (isoform 'a' present, shoulder on 'b', 'c' forming)) was “chromatogram. isoform ‘a’” and the “Stable?” value ([1]; I3A in Phosphate buffer pH 4.5, room temperature, 14 days) was “stable and √”. For the same compound, the Comments ([1]; I3A in Phosphate buffer pH 5.5, room temperature, 14 days) was “Isoform ‘a’ forms”, the Comments ([1]; I3A in Phosphate buffer pH 6.5, room temperature, 14 days) was “Isoform ‘a’ then ‘c’ form” and the “Stable?” value ([1]; I3A in Polyethylene glycol, room temperature, 14 days) was “√”. For the same compound, the Comments ([1]; I3A in Propylene glycol, room temperature, 14 days (comment continues: isoforms)) was “Formation of ‘a’ and ‘c’”, the Comments ([1]; I3A in Sodium hyaluronate/H2O, room temperature, 2 days study) was “Isoform ‘a’ present” and the “Stable?” value ([1]; I3A in Sodium hyaluronate/PO4 pH 4.5, room temperature, 2 days study) was “√”. The “Stable?” value ([1]; I3A in Tween 80/Span 80/H2O, room temperature, 14 days) was “√”, the “Stable?” value ([1]; I3A in Tween 80/Span 80/PO4 pH 4.5, room temperature, 14 days) was “√” and the Comments ([1]; I3A in Water, room temperature, 14 days) was “Isoform ‘a’ then ‘c’ form”. For the same compound, the “Stable?” value ([1]; I3A in β-cyclodextrin sulphobutyl ether (Captisol)/PO4 pH 4.5, room temperature, 7 days study) was “√”, the “diffusion of I3A across the stratum corneum” value [2] was “diffuses across the stratum corneum” and the “stability (predominance of peak 'b')” value ([3]; 100% v/v acetone) was “stable”. For the same compound, the “stability (predominance of peak 'b')” value ([3]; 100% v/v acetonitrile) was “stable” and the isomer formation ([3]; protic solvents (methanol, methanol/water, water)) was “formation of isomer ‘a’ and then isomer ‘c’ increases rapidly”.

— patent US8735375B2, “Therapeutic compositions” (Leo Laboratories Limited, priority 2005, dated 2014)
